The text below walks through data of ChEMBL document CHEMBL1201862, “PubChem BioAssay data set” (2004).

The source made the active and inactive calls.

The nature of assay [1]: microbe, parasite or virus in culture. Type of assay: functional. Particulars: Mycobacterium tuberculosis.
Assay [2] deals with Luciferin 4-monooxygenase (Photinus pyralis, UniProt P08659). Briefly: firefly luciferase enzyme inhibitors, dose response, biochemical, luminescence (AID 1891).
The target of another assay is Melanocortin receptor 4 (Homo sapiens, UniProt P32245). Format: functional, cell-based.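 Note: Cell-based assay with luminescence read-out, confirmatory dose-response testing for agonist activity of biased ligands at MC4R; human U2OS cells with tagged receptor and beta-arrestin; potency of agonists that increase receptor coupling to beta-arrestin.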
Assay [3] in a line: Luminescence Cell-Based Dose Confirmation HTS to Identify Inhibitors of Platelet Dense Granule Release. [Related pubchem assays: 1663 (Primary HTS), 1678 (Summary of Project)]. Type of assay: functional.
The target in assay [4] is T1, High affinity choline transporter 1 (Homo sapiens, UniProt Q9GZV3).
T1 sequence (Q9GZV3 whole entry): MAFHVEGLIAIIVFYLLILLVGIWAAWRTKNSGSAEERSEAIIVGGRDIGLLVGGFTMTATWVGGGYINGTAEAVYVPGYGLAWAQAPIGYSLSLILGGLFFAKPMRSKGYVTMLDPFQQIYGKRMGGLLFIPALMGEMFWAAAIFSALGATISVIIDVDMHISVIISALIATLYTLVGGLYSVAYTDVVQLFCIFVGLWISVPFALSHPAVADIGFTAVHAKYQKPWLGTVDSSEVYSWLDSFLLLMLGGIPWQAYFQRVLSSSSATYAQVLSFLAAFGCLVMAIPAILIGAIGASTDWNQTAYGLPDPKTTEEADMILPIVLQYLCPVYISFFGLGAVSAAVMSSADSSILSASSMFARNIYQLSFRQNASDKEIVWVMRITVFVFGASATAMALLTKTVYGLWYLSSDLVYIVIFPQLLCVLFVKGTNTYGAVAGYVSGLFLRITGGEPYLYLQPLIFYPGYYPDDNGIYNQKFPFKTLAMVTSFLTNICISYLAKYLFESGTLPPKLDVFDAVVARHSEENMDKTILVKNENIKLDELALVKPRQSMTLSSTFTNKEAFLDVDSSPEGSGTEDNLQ
The experiment in a line: CHT inhibitors, dose response, cell-based, 5-point CRC, membrane potential dye (AID 504840). Format: functional.

For assay [5], the system named is BJ. Briefly: cytotoxicity toward BJ-TERT fibroblasts, dose response, cell-based, RAS-independent, luminescence (AID 1933). Particulars: Homo sapiens. Type of assay: functional.
Assay [6] in a line: cytotoxicity toward DRD oncogenic fibroblasts, dose response, cell-based, non-viral oncogenic, luminescence (AID 1934). Type of assay: functional. Particulars: Homo sapiens.
The nature of assay [7]: cytotoxicity in HEK-293T cells, dose response, cytotoxicity control for TCR NF-kB inhibitor project, luminescence, T-cell screen hits (AID 489026).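 Note: cells exposed to compound about 14 hours before the viability readout.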 Type of assay: functional, cell-based.
The subject of assay [8] is BJ. Briefly: cells. Type of assay: functional, cell-based. To be noted: Homo sapiens.
Assay [9] has as its system BJ. The experiment in a line: cytotoxicity toward BJ-TERT-LT-ST fibroblasts, dose response, cell-based, RAS-independent, luminescence (AID 1935).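 Note: BJ fibroblasts immortalized with TERT plus LT and ST oncogenes.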 Type of assay: functional. Particulars: Homo sapiens.
For assay [10], the system named is BJ. Briefly: cytotoxicity toward Ras-transformed BJeLR fibroblasts, dose response, cell-based, alamar blue fluorescence, cherrypicked samples (AID 2631).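 Note: confirmatory dose-response assay in RAS-dependent BJ fibroblasts engineered with TERT, LT and ST, with cytotoxicity read by fluorescence.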 Particulars: Homo sapiens. Format: functional. For orientation: Resazurin is reduced to fluorescent resorufin, in cell work by metabolically active cells.
In assay [11] the target is T2, Carboxy-terminal domain RNA polymerase II polypeptide A small phosphatase 1 (Homo sapiens, UniProt Q9GZU7).
T2 sequence (Q9GZU7 whole entry): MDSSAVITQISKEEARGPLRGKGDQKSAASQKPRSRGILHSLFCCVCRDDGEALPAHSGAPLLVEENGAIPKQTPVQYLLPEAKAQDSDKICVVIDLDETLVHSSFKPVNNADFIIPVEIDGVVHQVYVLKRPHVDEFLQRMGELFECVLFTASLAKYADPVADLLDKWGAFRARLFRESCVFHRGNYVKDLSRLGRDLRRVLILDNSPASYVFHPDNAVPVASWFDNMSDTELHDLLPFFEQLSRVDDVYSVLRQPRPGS
Briefly: inhibitors of CTDSP1, concentration-response testing, biochemical assay, absorbance-based, actives from ultra-high-throughput screening (AID 540297). Type of assay: functional.

In the next assay the target is Beta-galactosidase (Escherichia coli, UniProt Q8VNN2). Briefly: beta-galactosidase enzyme inhibitors and activators, dose response, artefact control for CCR6 antagonist project, biochemical, E. coli enzyme, set 3 (AID 504712). Format: functional.
A short description of assay [12]: NIH-3T3 fibroblast cytotoxicity, dose response, cytotoxicity control, cell-based, fluorescence, Alamar Blue, secondary assay (AID 2327).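 Note: NIH-3T3 mouse fibroblasts cultured with fluconazole at 8 µg/mL.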 Type of assay: functional.
A short description of assay [13]: C. albicans growth with fluconazole, confirmation, fluorescence, retest (AID 2467). Type of assay: functional, cell-based.
A short description of assay [14]: A cytotoxicity screen of small molecule inhibitors of the PhoP region in Salmonella typhi identified in the primary screen. [Related pubchem assays: 1850, 1864, 1985 ]. Format: functional.
Assay [15] addresses T3, Short transient receptor potential channel 4 (Mus musculus, UniProt Q9QUQ5).
T3 sequence (Q9QUQ5 whole entry): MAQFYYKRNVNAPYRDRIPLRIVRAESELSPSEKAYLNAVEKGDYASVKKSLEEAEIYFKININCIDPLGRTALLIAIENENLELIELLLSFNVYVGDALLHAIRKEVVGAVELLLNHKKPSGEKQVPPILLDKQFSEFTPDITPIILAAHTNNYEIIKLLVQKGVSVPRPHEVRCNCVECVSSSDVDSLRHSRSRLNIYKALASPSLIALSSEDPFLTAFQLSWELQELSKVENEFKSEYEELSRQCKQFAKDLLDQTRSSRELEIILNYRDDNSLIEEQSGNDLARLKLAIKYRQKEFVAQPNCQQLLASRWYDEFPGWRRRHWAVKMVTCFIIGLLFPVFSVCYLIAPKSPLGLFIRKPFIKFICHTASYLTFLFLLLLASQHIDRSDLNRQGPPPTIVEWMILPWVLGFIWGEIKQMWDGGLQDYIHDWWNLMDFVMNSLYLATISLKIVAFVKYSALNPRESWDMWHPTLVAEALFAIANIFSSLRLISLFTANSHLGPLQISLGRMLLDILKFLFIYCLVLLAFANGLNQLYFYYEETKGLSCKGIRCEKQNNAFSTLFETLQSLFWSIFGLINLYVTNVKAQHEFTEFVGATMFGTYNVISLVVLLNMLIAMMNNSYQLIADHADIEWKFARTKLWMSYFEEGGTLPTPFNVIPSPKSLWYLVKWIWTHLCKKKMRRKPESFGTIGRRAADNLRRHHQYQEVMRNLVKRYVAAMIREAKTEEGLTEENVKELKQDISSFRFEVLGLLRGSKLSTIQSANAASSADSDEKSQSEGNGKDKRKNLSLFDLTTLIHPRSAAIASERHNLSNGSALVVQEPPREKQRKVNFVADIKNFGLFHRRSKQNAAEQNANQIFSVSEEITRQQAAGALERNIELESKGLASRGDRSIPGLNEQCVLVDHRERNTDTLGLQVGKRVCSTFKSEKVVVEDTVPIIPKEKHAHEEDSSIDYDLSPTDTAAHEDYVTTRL
The experiment in a line: mouse TRPC4 channel activators, dose response, cell-based, HEK293 TRPC4/mu-opioid, Fluo-4 calcium (AID 434937). Format: functional.

The target in the next assay is T4, Streptokinase A (Streptococcus pyogenes serotype M1, UniProt P10520).
T4 sequence (P10520 whole entry): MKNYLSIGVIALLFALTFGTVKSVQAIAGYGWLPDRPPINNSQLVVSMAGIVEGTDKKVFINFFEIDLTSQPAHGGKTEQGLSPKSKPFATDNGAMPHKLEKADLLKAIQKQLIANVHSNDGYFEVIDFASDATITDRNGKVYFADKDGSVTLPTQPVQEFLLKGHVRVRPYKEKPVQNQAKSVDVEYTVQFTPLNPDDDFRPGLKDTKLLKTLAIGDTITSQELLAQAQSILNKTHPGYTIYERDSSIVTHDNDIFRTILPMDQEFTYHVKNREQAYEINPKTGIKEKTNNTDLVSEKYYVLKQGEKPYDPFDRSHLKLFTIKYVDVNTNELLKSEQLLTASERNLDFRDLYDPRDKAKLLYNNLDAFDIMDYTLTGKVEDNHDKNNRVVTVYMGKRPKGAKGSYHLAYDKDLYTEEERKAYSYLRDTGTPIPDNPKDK
Briefly: S. pyogenes streptokinase expression inhibitors, potency, dose response, plasminogen activation absorbance, OD405 (AID 1914).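 Note: secreted streptokinase activity via plasminogen activation per viability signal from cell pellet.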 Type of assay: functional, Streptococcus pyogenes M1 GAS.

For a further assay, the system named is Vero. Briefly: cells. Particulars: Chlorocebus sabaeus. Type of assay: functional.
Assay [16] relates to Streptococcus sp. 'group A'. The experiment in a line: growth inhibition of control SK(-) GAS strain, dose response, counter-screen for streptokinase expression inhibitor project, luminescence, kanamycin, BacTiterGlo, confirmation (AID 1900). Type of assay: functional, organism-based.
For another assay, the system named is Streptococcus. The experiment in a line: Group A Streptococcus viability loss, dose response, counter-screen for streptokinase expression inhibitor project, luminescence, BacTiterGlo (AID 1915).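 Note: potency for reduction of bacterial viability or growth.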 Format: functional, organism-based.
For assay [17], the target named is Casein kinase I isoform alpha (Homo sapiens, UniProt P48729). Type of assay: functional.
A further assay concerns HEK293. The experiment in a line: inhibitors of LMP1-driven NF-kB reporter, dose response, cell-based, HEK293, luciferase, cherry-pick (AID 588343). Type of assay: functional. To be noted: Homo sapiens.
Assay [18] can be described thus: HepG2 cell cytotoxicity, dose response, cytotoxicity control for Shn3 inhibitor project, CellTiter-Glo, cherry-picked (AID 624134). Format: functional, cell-based.
The nature of assay [19]: Shn3 3'UTR reporter inhibitors, dose response, cell-based, Clone20 osteoblasts, firefly luciferase, cherry-picked (AID 624132).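 Note: firefly luciferase luminescence from reporter carrying the Shn3 3'UTR in osteoblasts.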 Type of assay: functional.
The nature of assay [20]: Luminescence Cell-Based Dose Retest to Confirm Inhibitors of Cancer Stem Cells. [Related pubchem assays (depositor defined):AID2717, AID2721]. Format: functional. To be noted: Homo sapiens.

The EC50 is the midpoint of the concentration-response curve. Broadly, the IC50 is the concentration that gives 50% inhibition. One may read the Ki as the equilibrium dissociation constant of an inhibitor or competing ligand from its target. The AC50 is the concentration giving half of the maximal activity seen.

Melanocortin receptor 4, sequence (P32245 whole entry): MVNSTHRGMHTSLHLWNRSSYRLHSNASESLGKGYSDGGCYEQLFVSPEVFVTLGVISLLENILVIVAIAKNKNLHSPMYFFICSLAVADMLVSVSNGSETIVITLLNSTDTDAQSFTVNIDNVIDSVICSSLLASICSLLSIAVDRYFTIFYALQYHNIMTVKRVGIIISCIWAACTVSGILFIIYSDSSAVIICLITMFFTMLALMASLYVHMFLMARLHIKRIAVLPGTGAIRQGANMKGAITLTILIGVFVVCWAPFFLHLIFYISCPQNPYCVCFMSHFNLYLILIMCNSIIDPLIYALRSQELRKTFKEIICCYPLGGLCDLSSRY
Casein kinase I isoform alpha, sequence (P48729 whole entry, canonical isoform): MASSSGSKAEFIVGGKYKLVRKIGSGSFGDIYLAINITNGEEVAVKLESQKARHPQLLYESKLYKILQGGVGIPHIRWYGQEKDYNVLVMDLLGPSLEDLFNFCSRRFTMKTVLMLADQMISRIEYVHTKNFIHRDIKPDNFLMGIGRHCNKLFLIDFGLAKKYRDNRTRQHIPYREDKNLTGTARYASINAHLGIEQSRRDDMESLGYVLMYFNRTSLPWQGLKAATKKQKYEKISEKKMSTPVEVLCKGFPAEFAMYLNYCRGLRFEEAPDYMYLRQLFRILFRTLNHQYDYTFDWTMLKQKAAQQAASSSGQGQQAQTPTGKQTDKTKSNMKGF
Beta-galactosidase, sequence (Q8VNN2 whole entry): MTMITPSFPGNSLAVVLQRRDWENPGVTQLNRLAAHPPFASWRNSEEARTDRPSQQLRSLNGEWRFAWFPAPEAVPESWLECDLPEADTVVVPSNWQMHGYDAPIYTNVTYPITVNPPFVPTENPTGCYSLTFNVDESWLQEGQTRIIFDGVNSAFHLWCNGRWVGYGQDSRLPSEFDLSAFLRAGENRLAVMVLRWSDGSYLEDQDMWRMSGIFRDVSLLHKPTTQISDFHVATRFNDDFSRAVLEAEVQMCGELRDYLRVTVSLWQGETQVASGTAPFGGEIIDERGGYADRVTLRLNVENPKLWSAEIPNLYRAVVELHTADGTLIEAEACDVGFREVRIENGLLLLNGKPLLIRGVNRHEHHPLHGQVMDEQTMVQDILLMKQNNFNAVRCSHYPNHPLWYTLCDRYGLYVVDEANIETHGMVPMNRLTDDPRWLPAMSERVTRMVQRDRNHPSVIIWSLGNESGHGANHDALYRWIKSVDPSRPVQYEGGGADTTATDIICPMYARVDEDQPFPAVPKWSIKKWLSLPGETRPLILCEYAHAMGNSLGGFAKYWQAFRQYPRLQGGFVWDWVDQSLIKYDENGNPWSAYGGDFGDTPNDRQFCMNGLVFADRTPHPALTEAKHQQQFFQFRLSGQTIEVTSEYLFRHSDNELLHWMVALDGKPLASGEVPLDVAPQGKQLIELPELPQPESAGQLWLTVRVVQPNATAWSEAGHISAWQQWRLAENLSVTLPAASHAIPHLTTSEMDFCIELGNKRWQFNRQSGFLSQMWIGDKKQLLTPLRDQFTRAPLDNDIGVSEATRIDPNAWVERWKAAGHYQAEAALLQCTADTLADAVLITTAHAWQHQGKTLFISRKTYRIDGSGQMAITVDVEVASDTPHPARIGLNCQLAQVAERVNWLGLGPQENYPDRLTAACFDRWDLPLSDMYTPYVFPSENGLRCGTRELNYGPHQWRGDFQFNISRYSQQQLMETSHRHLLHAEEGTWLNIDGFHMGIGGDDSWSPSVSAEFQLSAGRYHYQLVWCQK
Luciferin 4-monooxygenase, sequence (P08659 whole entry): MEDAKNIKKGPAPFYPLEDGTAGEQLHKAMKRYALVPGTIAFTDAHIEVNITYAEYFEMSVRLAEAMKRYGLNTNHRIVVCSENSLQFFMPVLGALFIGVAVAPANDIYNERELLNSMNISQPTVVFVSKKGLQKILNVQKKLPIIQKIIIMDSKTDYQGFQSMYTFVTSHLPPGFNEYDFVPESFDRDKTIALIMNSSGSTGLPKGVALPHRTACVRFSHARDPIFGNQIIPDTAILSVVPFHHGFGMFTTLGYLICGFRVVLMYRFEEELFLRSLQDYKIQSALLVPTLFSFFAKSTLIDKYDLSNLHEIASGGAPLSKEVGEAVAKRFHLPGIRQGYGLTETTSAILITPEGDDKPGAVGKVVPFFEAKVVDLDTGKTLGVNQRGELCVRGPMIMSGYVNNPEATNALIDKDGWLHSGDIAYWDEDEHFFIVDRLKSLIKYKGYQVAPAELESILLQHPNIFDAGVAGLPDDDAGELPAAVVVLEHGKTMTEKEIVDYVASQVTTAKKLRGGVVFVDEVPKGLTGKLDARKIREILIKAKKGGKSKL

With `COc1cccc(CC2(CO)CCCN(Cc3[nH]c4ccc(C)cc4c3C)C2)c1` (configuration not stated), the CC50 in [1] was 39.3 µM (active). Further, the half-maximal effective concentration (EC50) was > 112 µM (not active) in assay [2], > 89.2 µM (inactive) at Melanocortin receptor 4 and > 112 µM (not active) in assay [3].
As for `CC1(C)CC(=O)C=C(Nc2cccc(Cl)c2Cl)C1`, in assay [4], the concentration for half-maximal inhibition (IC50) was 3.16 µM (active).
As to `CC(C)Oc1ccccc1C1CC(=O)Nc2cc3c(cc21)OCCO3` (configuration not stated), the concentration for a half-maximal effect (EC50) in the assay with BJ [5] was 1.36 µM (active); in assay [6] it was 0.676 µM (active); with BJ [8], 8.62 µM (active); in the assay with BJ [9], 0.709 µM (active); with BJ [10] it was 0.181 µM (active). In addition, the IC50 in assay [7] was > 80 µM (inactive).
In the case of `CCOc1ccc(C=NNc2ccc(S(=O)(=O)Nc3ccccc3C(=O)O)cc2[N+](=O)[O-])cc1OC`, the IC50 is 3.51 µM (active) in [11] and > 66.6 µM (inactive) at Beta-galactosidase.
Turning to `N#C/C(=C\c1ccc(OC(=O)c2cccs2)cc1)c1nc2ccccc2[nH]1`, the IC50 in assay [11] is 11.4 µM (active). For the same molecule, the EC50 in [12] is 76.2 µM (active); in assay [13] it was 3.35 µM (active).
With `Cc1cc(CSC(=N)N)c(CSC(=N)N)cc1C`, the figures for the concentration for a half-maximal effect (EC50) in assay [14] and in assay [15] were > 50 µM (active) and 2.11 µM (active), respectively.
With `CC(=O)Nc1cc(-c2ccccc2)cn2c(-c3ccc(F)c(Cl)c3)cnc12`, the EC50 at Melanocortin receptor 4 is > 89.2 µM (inactive).
On to `Cc1ccccc1C(=O)NNC(=S)NC(=O)c1cccs1`, for which the concentration for a half-maximal effect (EC50) was > 150 µM (not active) at Streptokinase A, 3.53 µM (active) in [16], 5.96 µM (active) in assay [15] and 18.2 µM (active) with Streptococcus. The CC50 in the assay on Vero is > 25 µM (active).
For the molecule `COc1cccc(C2c3c(-c4ccccc4)n[nH]c3C(=O)N2c2ccc(C(=O)O)cc2)c1` (configuration not stated), the IC50 in assay [11] is 5.63 µM (active).
Consider `N#Cc1cnc(Cl)nc1N`, for which the Ki in assay [17] is 100 µM (active).
Consider `C[C@@H]1CN([C@@H](C)CO)S(=O)(=O)c2ccc(/C=C/c3ccccc3)cc2O[C@@H]1CN(C)Cc1ccc(C(=O)O)cc1`, for which the AC50 in the assay on HEK293 is 35.4 µM (active).
As to `Cc1ccccc1NC(=O)CSc1nc2ccccc2c(=O)n1C`, the AC50 in assay [18] is 59.6 µM (active); in assay [19], 7.64 µM (active).
With `CC(C)C[C@@H](CO)N(Cc1ccccc1)S(=O)(=O)N(Cc1ccccc1)[C@H](CO)CC(C)C`, the concentration at half-maximal activity (AC50) is 21 µM (active) in [18], 10.1 µM (active) in assay [19] and 5.76 µM (active) in assay [20].
